Measured values reported in patent US11000524B2, “Tyrosine kinase inhibition as a treatment for epilepsy” (Iowa State University Research Foundation, Inc., priority 2016, dated 2021).

Assays:
[1] = tested on: hippocampal in vitro model; details: Salter and Kalia, 2004, Sanna et al., 2000; cited from earlier work
[2] = tested on: kainate-induced SE in C57BL/6J mice; assay: Saracatinib pretreatment 4 h before kainate-induced status epilepticus (behavioral seizure scoring, modified Racine scale); type: in vivo; details: for mortality during SE / latency to the onset of first CS: saracatinib 25 mg/kg oral 4 h prior to SHD kainate 25 mg/kg i.p.; for mortality during SE: about 20% in vehicle group
Description: We tested Fyn knockout mice (fyn^−/−), bred on C57BL/6J hybrid background mouse (fyn^+/+), and in wildtype C57BL/6J mice treated with the fyn kinase inhibitor, Saracatinib ([…], 25 mg/kg, oral, single dose) 4 h prior to the induction of SE with KA (5 mg/kg, i.p. at 30 min intervals or as a single high dose of 25 mg/kg). Two hours after the established SE, the behavioral SE was terminated with diazepam (10 mg/kg, i.p.). The animals were euthanized with pentobarbitone (100 mg/kg, i.p.) at 4 h, 24 h and 7d (for IHC & WB) and 4 weeks (video-EEG group) post-SE. The brain, serum, and cerebrospinal fluid (CSF) were collected for various analyses. […] We examined the time-dependent activation of fyn in microglial cells and initiation of neuro-inflammatory and neurodegenerative mechanisms in the hippocampus at 4 h, 24 h and 7 day time points post-SE. We also performed electroencephalographic (EEG) analysis to determine the spike rate and SRS frequency.
Thirty C57BL/6J mice were used for the saracatinib experiment. In this experiment, 15 mice were treated with saracatinib (25 mg/kg, oral gavage as a single dose) at 4 h prior to a single high dose (SHD) of kainate (25 mg/kg, i. p), while the remaining 15 mice were given the vehicle [0.5% hydroxypropyl methylcellulose in 0.1% tween 80] 4 h prior to kainate.
All animals administered with kainate were subjected to video recording. The seizures were staged and the SE was scored by direct observation of animals during the 2 h SE and exact duration of each stage of seizure was calculated. The video recordings were used for secondary analysis and for independent verification of seizures by two different personnel who were not involved in direct scoring during the experiments. The personnel who did the behavioral analysis were blind to the experimental groups. The behavioral seizures were scored based on modified Racine scale from stage 1 to 5 as described previously (Beamer et al., 2012; Puttachary et al., 2015b; Racine, 1972; Tse et al., 2014). Briefly, the staging was as follows: stage 1, absence-like immobility; stage-2, hunching with facial or manual automatisms evident from brisk movement of vibrissae and repeated grooming of the face; stage 3, rearing with forelimb clonus and facial or manual automatisms; stage 4, repeated rearing with continuous forelimb clonus and falling; and stage-5, generalized tonic clonic convulsions with lateral recumbence or jumping and/or wild running followed by generalized convulsions. Stage 1 and stage 2 were categorized as non-convulsive seizures (NCS) and stage ≥3 as convulsive seizures (CS) (Beamer et al., 2012; Puttachary et al., 2015b; Tse et al., 2014). The latency to the onset of CS and the duration of seizures were analyzed for each animal within a group as described previously (Puttachary et al., 2015b; Tse et al., 2014). The duration of CS is the total time spent by an animal in stage ≥3 during the 2 h of established SE until the diazepam was administered. Since a very few animals reached stage 5 in the saracatinib pretreated group and in the fyn^−/− mice, we considered stage ≥3 as the starting point for 2 h established SE. The data were analyzed and the severity of seizures, duration of CS, latency to CS onset, and mortality rate were compared between the groups.
In all kainate-treated animals, the behavior seizures were terminated with diazepam (10 mg/kg, i.p.) at 2 h after the first onset of convulsive seizure. The 2 h duration between the onset of convulsive seizure and the diazepam treatment was considered as 2 h established SE. During this period, all wildtype control mice had continuous convulsive seizures for >30 min. All kainate-treated animals received 1 mL of Ringer's lactate solution (s.c.) twice a day for three days to enable them to recover from dehydration and the lost bodyweight due to SE.

[3] = LC-MS of saracatinib in hippocampal tissue (blood brain barrier crossing); type: in vivo, C57BL/6J mice
Description: For the LC-MS the optimum dose of saracatinib for our experiment was based on the published literature (Green et al., 2009; Hannon et al., 2010; Liu et al., 2012; Yang et al., 2010). […] The mice hippocampal tissues were homogenized in ˜0.2 mL 1:1 methanol:water using bullet blender. An additional 125 μL HPLC grade water was added to the homogenized samples. This was followed by three similar successive extractions with 375 μL 3:1 acetonitrile:water. The homogenate was sonicated for 10 min in a sonication water bath. The sample was pelleted by centrifugation at 13,000 g for 7 min and the supernatant was collected after each extraction and the samples were pooled. […]
The LC-MS analysis for saracatinib was conducted using an Agilent Technologies 1290 Infinity Binary Pump UHPLC system coupled to an Agilent Technologies 6540 UHD Accurate-Mass Q-TOF mass spectrometer in high resolution mode ([…]) and scanning m/z 100-1700. […] Saracatinib detection is represented by extracted ion chromatogram (EIC) using a 10 ppm extraction window and was analyzed (FIG. 1E) using Agilent Mass Hunter Qualitative Analysis B.07.00 software. The X-axis on the EIC represents retention time and the Y-axis represents the abundance of ions detected. Saracatinib concentrations were observed as the area of the EIC peaks and was calculated based on the linear curve of the observed peak areas of standards. […]

rat kainate model of TLE = assay: Saracatinib post-treatment in the rat kainate model of TLE, 28 days continuous video-EEG; type: in vivo, Sprague Dawley rats; details: for rats that did not develop epilepsy (of seven treated): 25 mg/kg oral from 2 h post-diazepam, twice daily 3 days then daily 4 days
Description: Rats were used in the following example. The rats were treated as per the materials and methods of Examples 2-10 except for the following. Fourteen rats were used and implanted with telemetry device 10 days prior to the induction of SE, with RLD of kainate, as described previously (Puttachary et al., 2016b). The telemetry device used was CTA-F40 PhysioTel™ telemetry device (Data Science International, Minneapolis, USA) for video-EEG recording.
Disabling the Fyn kinase function, either by pretreatment with saracatinib or fyn KO, prior to SE induction impacts the initial severity of SE and thus compromises the epileptogenic events. Therefore, we tested the effect of Fyn kinase inhibition with the saracatinib on epileptogenesis after the induction of SE in the rat kainate model of TLE. To mimic human TLE from translational view point, the rat kainate model is more suitable in terms of progressive nature of the disease since the frequency of spontaneous CS consistently increases over time in rats in contrast to the mouse kainate model (Puttachary et al., 2015b and 2016b). Therefore, we tested the saracatinib in the rat kainate model after terminating the behavioral SE with diazepam. The saracatinib (25 mg/kg, oral) was administered at 2 h post-diazepam and repeated twice daily for first three days followed by a single dose daily for the next four days during the first week of post-SE period. The treatment regimen was chosen based on increase in Fyn and PKCδ levels during the first week of post-SE in the mouse model.

[4] = tested on: rat kainate model of epilepsy; assay: Saracatinib post-treatment in the rat kainate model of epilepsy, 4 months video-EEG study; type: in vivo, rats; details: four months monitoring
Description: Fifteen rats (n=8 for control and 7 for SAR) were studied over the course of four months. Treatments and methods used in Example 12 were followed for this Example except for the extended time and the SAR/vehicle was administered 2 h after stopping the seizures (SE) with diazepam. The SAR was given at 25 mg/kg, oral twice daily for three days followed by daily for next four days. The drug was NOT administered after 7-day time point.

[5] = saracatinib 25 mg/kg oral single dose 4 h prior to kainate, vs vehicle, 2 h established SE

## CC(C)(C)n1nc(-c2ccc(Cl)cc2)c2c(N)ncnc21 [PP2]
[1]
  frequency of epileptiform discharges: reduces frequency of epileptiform discharges

## CN1CCN(CCOc2cc(OC3CCOCC3)c3c(Nc4c(Cl)ccc5c4OCO5)ncnc3c2)CC1 [saracatinib, N-(5-chloro-1,3-benzodioxol-4-yl)-7-[2-(4-methylpiperazin-1-yl)ethoxy]-5-(oxan-4-yloxy)quinazolin-4-amine]
[2]; SHD kainate 25 mg/kg, 67% in vehicle group
  mice that reached stage 5 seizure: 7%
[2]
  mortality during SE: no mortality
[2]; listed as SAR
  mortality during SE: reducing seizure severity and morality rate
[2]; vs vehicle
  latency to the onset of first CS: increased latency
[2]; vs vehicle, listed as SAR
  latency to the onset of first CS: increasing the latency of seizure onset
[2]; [5]
  duration of convulsive seizures (CS): significant reduction
  seizure severity: significant reduction
[2]; saracatinib 25 mg/kg oral single dose 4 h prior to kainate, vs vehicle, 2 h established SE, listed as SAR
  seizure severity: reducing seizure severity
[3]; LC-MS of hippocampus after 25 mg/kg oral
  crossing of the blood brain barrier (BBB): crossed the BBB
[3]; LC-MS, FIG. 1F
  persistence in hippocampus, 8 h compared to 28 h: persisted in the hippocampus at higher levels at 8 h post-SE when compared to 28 h post-administration
Rat kainate model of TLE; 28 d post-SE
  rats that did not develop epilepsy (of seven treated): four out of seven
Rat kainate model of TLE; 28 d post-SE, listed as SAR
  rats that did not develop epilepsy (of seven treated): four
Rat kainate model of TLE; 28 d post-SE, video-EEG
  epileptiform spike counts / spiking frequency vs vehicle: significantly reduced
  number of spontaneous CS vs vehicle: significantly reduced
Rat kainate model of TLE; 28 d post-SE, video-EEG, listed as SAR
  number of spontaneous CS vs vehicle: significant reduction
Rat kainate model of TLE; before treatment (post-SE dosing)
  initial SE severity vs vehicle group: no significant difference
Rat kainate model of TLE; of seven treated rats
  rats not responding to treatment: one rat did not respond
Rat kainate model of TLE; two of seven treated rats, >24 episodes in vehicle group
  number of spontaneous CS in a month (two rats): < 10
[4]; 25 mg/kg oral twice daily 3 days then daily 4 days
  rats in which development of epilepsy was completely prevented (of seven): four out of seven
[4]
  animals not responding: one animal did not respond
  seizures in the other animals: significantly reduced seizures
